From US20250009713A1 (priority 2021, published 2025)
Entries after “also recorded” stand apart in the source; their conditions may differ. Like-named read-outs stand apart in the source and are kept apart here.

Key:
[1] = tested on: IL-6; IL-1a; IL-1B; TNFα; TGFβ; MCP-1; type: in vivo, K18-hACE2 mice; settings: 7 days post infection
[2] = tested on: SARS-COV-2 Japan/TY7-503/2021-Brazil_P.1 (NR-54982); assay: qRT-PCR of viral genome copies released into culture medium, Calu-3 cells; type: cell-based
[3] = tested on: SARS-COV-2 (2019n-COV/USA-WA1/2020); type: in vivo, K18-hACE2 mice
[4] = tested on: SARS-COV-2 (2019n-COV/USA-WA1/2020); type: in vivo, K18-hACE2 mice; settings: for reduction of viral load in lung: 7 days, Day 7
[5] = tested on: SARS-COV-2 Japan/TY7-503/2021-Brazil_P.1 (NR-54982); assay: plaque assay of infectious virus released into culture medium, Calu-3 cells; type: cell-based
[6] = tested on: six strains of SARS-COV-2; assay: plaque assay, summary over six strains and two cell types; type: cell-based
[7] = tested on: SARS-COV-2 Japan/TY7-503/2021-Brazil_P.1 (NR-54982); assay: qRT-PCR of viral genome copies released into culture medium, Vero cells; type: cell-based
[8] = tested on: SARS-COV-2 Japan/TY7-503/2021-Brazil_P.1 (NR-54982); assay: plaque assay of infectious virus released into culture medium, Vero cells; type: cell-based
[9] = tested on: SARS-COV-2 US-WA1/2020 (NR-52281); assay: as above; type: cell-based
[10] = tested on: SARS-COV-2 (2019n-COV/USA-WA1/2020); type: in vivo, K18-hACE2 mice; settings: for reduction of infectious virus recovered from lung tissue: 7 days, Day 7, P<0.001
[11] = tested on: SARS-COV-2 US-WA1/2020 (NR-52281); assay: qRT-PCR of viral genome copies released into culture medium, Vero cells; type: cell-based
[12] = tested on: SARS-COV-2 US-WA1/2020 (NR-52281); assay: qRT-PCR of viral genome copies released into culture medium, Calu-3 cells; type: cell-based
[13] = tested on: SARS-COV-2 US-WA1/2020 (NR-52281); assay: plaque assay of infectious virus released into culture medium, Calu-3 cells; type: cell-based
[14] = tested on: six strains of SARS-COV-2; assay: qRT-PCR assay, summary over six strains and two cell types; type: cell-based
[15] = Severe acute respiratory syndrome coronavirus 2, virus BR, m.o.i 0.1, BIT225 added 1 hour pre-infection, 4 days post infection
[16] = virus BR, log-logistic curve fit
[17] = 300 mg/kg twice daily, day 5 (Experiment 3) or Day 12 (Experiment 2), 11 mice
[18] = Experiment 1, 100 mg/kg or 300 mg/kg for 7 days, vs vehicle
[19] = Severe acute respiratory syndrome coronavirus 2, m.o.i 0.1, BIT225 added 1 hour pre-infection, 4 days post infection
[20] = Severe acute respiratory syndrome coronavirus 2, virus WA1, m.o.i 0.1, BIT225 added 1 hour pre-infection, 4 days post infection
[21] = virus WA1, log-logistic curve fit

SMILES: Cn1cc(-c2cccc3cc(C(=O)NC(=N)N)ccc23)cn1 [BIT225, N-carbamimidoyl-5-(1-methyl-1H-pyrazol-4-yl)-2-naphthamide]
- IL-6 level, statistically significant (P<0.05) lower than vehicle control ([1]; 100 mg/kg dose group): exception
- mean and median cytokine concentrations relative to vehicle control group ([1]; high-dose BIT225 group (300 mg/kg)): less than half
- end-of-treatment levels of IL-6, IL-1a, IL-1B, TNFα, TGFβ and MCP-1 ([1]; lung and serum, 100 or 300 mg/kg twice daily, vs vehicle control): reduced
- EC50 [2, 15]: 4.64 µM
- Max. Response (d) [2, 16]: 2.53 log10
- Slope (b) [2, 16]: 1.12
- survival to day 5 (Experiment 3) or Day 12 (Experiment 2) ([3]; 11 mice, 300 mg/kg twice daily): all survived
- difference in body weight changes between the two BIT225 dosing levels ([3]; Experiment 1, 100 mg/kg vs 300 mg/kg twice daily, 7 days): no significant difference
- difference between group-mean body weight changes, vehicle lower than combined BIT225 groups ([3]; Experiment 1, day 5, P=0.01): 3.8%
- difference between group-mean body weight changes, vehicle lower than combined BIT225 groups ([3]; Experiment 1, day 6, P=0.001): 6.4%
- mice with body weights greater than their pre-infection weights ([3]; Experiment 1, day 7, 100 mg/kg or 300 mg/kg twice daily): all 10
- difference between group-mean body weight changes, vehicle lower than combined BIT225 groups ([3]; Experiment 1, day 7, 95% CI [5.6-10.7], P=0.001): 8.1%
- survival and weight gain to day 12 ([3]; Experiment 2, 300 mg/kg twice daily for 12 days, n=7, all vehicle mice died by day 9, P<0.001 log-rank, 300 mg/kg): all mice survived and continued to gain weight; also recorded: all seven mice in the BIT225 group survived
- health and weight change to Day 5 ([3]; Experiment 3, 300 mg/kg twice daily, 5 days, n=4): remained healthy and gained weight to Day 5
- survival, health and weight gain through day 12 ([3]; Experiment 4, 300 mg/kg twice daily starting 24 h post-infection, n=5, 300 mg/kg): remained healthy and continued gain weight as per age expectations through to day 12; also recorded: survived to Day 12
- survival, health and weight gain through day 12 ([3]; Experiment 4, 300 mg/kg twice daily starting 24 h pre-infection, n=5, 300 mg/kg): remained healthy and continued gain weight as per age expectations through to day 12; also recorded: survived to Day 12
- mice that died (day 11) ([3]; Experiment 4, 300 mg/kg twice daily starting 48 h post-infection, n=5, 300 mg/kg): One of the five; also recorded: one mouse
- mice that continued to gain body weight ([3]; across three experiments, 12 hourly oral doses of BIT225 (100 or 300 mg/kg), intranasal): 21 out of 21
- lung viral loads (qRT-PCR) [4, 17]: at or below the limits of detection
- viral load in serum [4, 18]: significant reductions
- reduction of viral load in lung ([4]; Experiment 1, 100 mg/kg twice daily, vs vehicle, P<0.001): approximately 2 log 10
- reduction of viral load in lung ([4]; Experiment 1, 300 mg/kg twice daily, vs vehicle): approximately 3.5 log 10
- EC50 [5, 15]: 5.79 µM
- Max. Response (d) [5, 16]: 3.39 log10
- Slope (b) [5, 16]: 1.36
- EC50 ([6]; Severe acute respiratory syndrome coronavirus 2, read-out: EC50, range): 3.4 to 7.9 µM
- EC50 ([6]; Severe acute respiratory syndrome coronavirus 2, plaque assay, mean over six strains and two cell types, read-out: EC50, mean): 6.2 µM
- EC50 [7, 15]: 4.03 µM
- Max. Response (d) [7, 16]: 3.53 log10
- Slope (b) [7, 16]: 1.13
- EC50 [8, 15]: 6.36 µM
- Max. Response (d) [8, 16]: 6.39 log10
- Slope (b) [8, 16]: 1.67
- EC50 [9, 19]: 4.09 µM
- Max. Response (d) ([9]; log-logistic curve fit): 6.40 log10
- Slope (b) ([9]; log-logistic curve fit): 1.45
- lung plaque counts [10, 17]: < 200 mL⁻¹
- infectious virus in serum [10, 18]: significant reductions
- reduction of infectious virus recovered from lung tissue ([10]; Experiment 1, 100 mg/kg twice daily): approximately 2000 PFU/mL
- reduction of infectious virus recovered from lung tissue ([10]; Experiment 1, 300 mg/kg twice daily): ~4000 PFU/mL
- EC50 [11, 20]: 2.53 µM
- Max. Response (d) [11, 21]: 3.29 log10
- Slope (b) [11, 21]: 1.79
- EC50 [12, 20]: 2.55 µM
- Max. Response (d) [12, 21]: 2.41 log10
- Slope (b) [12, 21]: 1.38
- EC50 [13, 19]: 3.43 µM
- Max. Response (d) ([13]; log-logistic curve fit): 3.38 log10
- Slope (b) ([13]; log-logistic curve fit): 1.31
- EC50 ([14]; Severe acute respiratory syndrome coronavirus 2, read-out: EC50 estimates, range): 2.5 to 4.8 µM
- EC50 ([14]; Severe acute respiratory syndrome coronavirus 2, qRT-PCR assay, mean over six strains and two cell types, read-out: EC50, mean): 3.7 µM
